The source of these data is ChEMBL document CHEMBL1135510, “Common and selective molecular determinants involved in metabotopic glutamate receptor agonist activity” (J Med Chem, 2002).

Assay [1] addresses T1, Metabotropic glutamate receptor 4 (Homo sapiens, UniProt Q14833). The assay is described as follows: Binding affinity at Metabotropic glutamate receptor 4. Set-up: species or system Rattus norvegicus.
In assay [2] the target is Metabotropic glutamate receptor 1 (Rattus norvegicus, UniProt P23385). As to the kind of experiment: Inhibition of binding to rat mGluR1a (metabotropic glutamate receptor) expressed in HEK-293 cells. The class given is cell-based, HEK293.
Chain of Metabotropic glutamate receptor 1 (P23385 whole entry): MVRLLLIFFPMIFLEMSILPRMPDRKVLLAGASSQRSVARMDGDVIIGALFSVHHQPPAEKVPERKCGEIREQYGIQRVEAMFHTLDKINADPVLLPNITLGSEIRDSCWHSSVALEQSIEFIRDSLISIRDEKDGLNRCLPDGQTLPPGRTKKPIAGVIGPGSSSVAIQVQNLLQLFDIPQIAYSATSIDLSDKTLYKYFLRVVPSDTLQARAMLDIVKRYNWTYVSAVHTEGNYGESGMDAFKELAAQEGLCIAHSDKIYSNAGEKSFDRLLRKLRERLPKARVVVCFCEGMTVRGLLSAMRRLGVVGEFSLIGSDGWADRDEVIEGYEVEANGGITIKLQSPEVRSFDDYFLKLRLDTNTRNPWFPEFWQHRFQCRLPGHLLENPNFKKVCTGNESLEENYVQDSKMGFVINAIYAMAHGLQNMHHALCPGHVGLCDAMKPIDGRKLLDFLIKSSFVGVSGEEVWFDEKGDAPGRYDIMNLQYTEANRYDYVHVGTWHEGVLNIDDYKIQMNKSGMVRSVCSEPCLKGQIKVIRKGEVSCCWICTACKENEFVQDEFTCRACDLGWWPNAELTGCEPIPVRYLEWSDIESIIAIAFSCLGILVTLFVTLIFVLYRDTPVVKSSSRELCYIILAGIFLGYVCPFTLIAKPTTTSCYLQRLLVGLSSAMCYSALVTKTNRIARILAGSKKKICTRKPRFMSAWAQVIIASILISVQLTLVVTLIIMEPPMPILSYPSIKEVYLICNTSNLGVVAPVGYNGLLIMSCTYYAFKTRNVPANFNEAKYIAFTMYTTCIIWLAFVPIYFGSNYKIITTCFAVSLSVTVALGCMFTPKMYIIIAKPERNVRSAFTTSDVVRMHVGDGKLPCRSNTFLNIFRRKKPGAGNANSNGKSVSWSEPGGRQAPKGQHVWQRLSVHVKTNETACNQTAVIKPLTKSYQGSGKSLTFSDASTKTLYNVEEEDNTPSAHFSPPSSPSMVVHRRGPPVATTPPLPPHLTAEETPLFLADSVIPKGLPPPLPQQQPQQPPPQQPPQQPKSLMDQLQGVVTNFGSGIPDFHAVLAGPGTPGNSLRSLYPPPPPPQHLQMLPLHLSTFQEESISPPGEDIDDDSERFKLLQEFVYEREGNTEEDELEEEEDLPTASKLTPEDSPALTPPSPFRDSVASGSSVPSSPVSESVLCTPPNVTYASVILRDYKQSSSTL
The target of assay [3] is T2, Metabotropic glutamate receptor 2 (Homo sapiens, UniProt Q14416). As to the kind of experiment: Binding affinity at Metabotropic glutamate receptor 2. Details: species or system Rattus norvegicus.
Target sequence in this assay (Q14416 whole entry): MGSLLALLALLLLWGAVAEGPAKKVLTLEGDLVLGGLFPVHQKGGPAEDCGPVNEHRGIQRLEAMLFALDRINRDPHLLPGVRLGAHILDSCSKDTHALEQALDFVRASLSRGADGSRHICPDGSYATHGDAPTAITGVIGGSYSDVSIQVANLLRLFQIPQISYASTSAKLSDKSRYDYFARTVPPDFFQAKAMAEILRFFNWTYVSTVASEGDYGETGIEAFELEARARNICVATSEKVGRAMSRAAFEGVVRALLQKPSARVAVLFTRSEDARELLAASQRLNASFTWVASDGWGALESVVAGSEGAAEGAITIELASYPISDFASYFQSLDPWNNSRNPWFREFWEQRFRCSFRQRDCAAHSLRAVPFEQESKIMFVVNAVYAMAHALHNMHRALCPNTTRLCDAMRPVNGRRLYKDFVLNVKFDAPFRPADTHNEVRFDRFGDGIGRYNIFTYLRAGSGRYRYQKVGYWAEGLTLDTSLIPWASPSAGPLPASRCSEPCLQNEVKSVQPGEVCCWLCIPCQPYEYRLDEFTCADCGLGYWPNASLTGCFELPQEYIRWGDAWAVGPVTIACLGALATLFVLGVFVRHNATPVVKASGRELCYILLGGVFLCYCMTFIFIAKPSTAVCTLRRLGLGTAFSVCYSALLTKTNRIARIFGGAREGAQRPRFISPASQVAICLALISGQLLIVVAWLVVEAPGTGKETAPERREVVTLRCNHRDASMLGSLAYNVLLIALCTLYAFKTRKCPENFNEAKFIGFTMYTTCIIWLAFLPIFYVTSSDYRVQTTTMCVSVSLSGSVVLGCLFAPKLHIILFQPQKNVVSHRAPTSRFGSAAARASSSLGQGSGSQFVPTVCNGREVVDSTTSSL
In assay [4] the target is T2, Metabotropic glutamate receptor 2. The assay is described as follows: Potency at metabotropic glutamate receptor 2, measured as the ratio of EC50 to IC50; No effect at 1 mM.
Target sequence in this assay (Q14416 19-872 limits assumed): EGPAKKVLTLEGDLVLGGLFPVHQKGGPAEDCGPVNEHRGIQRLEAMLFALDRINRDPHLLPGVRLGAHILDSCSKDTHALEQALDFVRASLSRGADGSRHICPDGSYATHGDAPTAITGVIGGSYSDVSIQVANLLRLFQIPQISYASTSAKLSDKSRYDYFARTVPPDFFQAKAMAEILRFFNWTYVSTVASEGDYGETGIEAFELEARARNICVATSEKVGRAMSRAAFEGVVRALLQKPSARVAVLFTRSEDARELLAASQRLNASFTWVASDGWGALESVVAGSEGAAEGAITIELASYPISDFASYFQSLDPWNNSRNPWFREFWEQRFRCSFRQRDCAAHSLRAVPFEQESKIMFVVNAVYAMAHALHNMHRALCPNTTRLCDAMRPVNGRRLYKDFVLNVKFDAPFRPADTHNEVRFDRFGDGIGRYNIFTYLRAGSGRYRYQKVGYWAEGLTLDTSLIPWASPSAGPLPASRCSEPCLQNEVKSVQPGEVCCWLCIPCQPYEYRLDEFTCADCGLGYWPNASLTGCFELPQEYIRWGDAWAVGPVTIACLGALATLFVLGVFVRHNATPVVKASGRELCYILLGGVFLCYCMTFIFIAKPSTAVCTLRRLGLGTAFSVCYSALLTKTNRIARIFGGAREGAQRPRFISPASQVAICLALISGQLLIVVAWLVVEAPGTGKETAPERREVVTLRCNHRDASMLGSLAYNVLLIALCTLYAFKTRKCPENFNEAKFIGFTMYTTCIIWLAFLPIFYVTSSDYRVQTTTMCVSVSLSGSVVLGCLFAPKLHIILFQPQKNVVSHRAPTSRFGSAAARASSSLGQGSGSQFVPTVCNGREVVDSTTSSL
Assay [5] deals with T1, Metabotropic glutamate receptor 4. The assay is described as follows: Potency at metabotropic glutamate receptor 4, measured as the ratio of EC50 to IC50; No effect at 1 mM.
The target of assay [6] is T2, Metabotropic glutamate receptor 2. The assay is described as follows: Potency at Metabotropic glutamate receptor 2, measured as the ratio of EC50 to IC50; No effect at 1 mM.
Target sequence in this assay (Q14416 19-872 limits assumed): as above
Assay [7] deals with Metabotropic glutamate receptor 1 (Homo sapiens) (UniProt Q13255). The assay is described as follows: Potency at Metabotropic glutamate receptor 1, measured as the ratio of EC50 to IC50; No effect at 1 mM.
Chain of Metabotropic glutamate receptor 1 (Homo sapiens) (Q13255 19-1194 limits assumed): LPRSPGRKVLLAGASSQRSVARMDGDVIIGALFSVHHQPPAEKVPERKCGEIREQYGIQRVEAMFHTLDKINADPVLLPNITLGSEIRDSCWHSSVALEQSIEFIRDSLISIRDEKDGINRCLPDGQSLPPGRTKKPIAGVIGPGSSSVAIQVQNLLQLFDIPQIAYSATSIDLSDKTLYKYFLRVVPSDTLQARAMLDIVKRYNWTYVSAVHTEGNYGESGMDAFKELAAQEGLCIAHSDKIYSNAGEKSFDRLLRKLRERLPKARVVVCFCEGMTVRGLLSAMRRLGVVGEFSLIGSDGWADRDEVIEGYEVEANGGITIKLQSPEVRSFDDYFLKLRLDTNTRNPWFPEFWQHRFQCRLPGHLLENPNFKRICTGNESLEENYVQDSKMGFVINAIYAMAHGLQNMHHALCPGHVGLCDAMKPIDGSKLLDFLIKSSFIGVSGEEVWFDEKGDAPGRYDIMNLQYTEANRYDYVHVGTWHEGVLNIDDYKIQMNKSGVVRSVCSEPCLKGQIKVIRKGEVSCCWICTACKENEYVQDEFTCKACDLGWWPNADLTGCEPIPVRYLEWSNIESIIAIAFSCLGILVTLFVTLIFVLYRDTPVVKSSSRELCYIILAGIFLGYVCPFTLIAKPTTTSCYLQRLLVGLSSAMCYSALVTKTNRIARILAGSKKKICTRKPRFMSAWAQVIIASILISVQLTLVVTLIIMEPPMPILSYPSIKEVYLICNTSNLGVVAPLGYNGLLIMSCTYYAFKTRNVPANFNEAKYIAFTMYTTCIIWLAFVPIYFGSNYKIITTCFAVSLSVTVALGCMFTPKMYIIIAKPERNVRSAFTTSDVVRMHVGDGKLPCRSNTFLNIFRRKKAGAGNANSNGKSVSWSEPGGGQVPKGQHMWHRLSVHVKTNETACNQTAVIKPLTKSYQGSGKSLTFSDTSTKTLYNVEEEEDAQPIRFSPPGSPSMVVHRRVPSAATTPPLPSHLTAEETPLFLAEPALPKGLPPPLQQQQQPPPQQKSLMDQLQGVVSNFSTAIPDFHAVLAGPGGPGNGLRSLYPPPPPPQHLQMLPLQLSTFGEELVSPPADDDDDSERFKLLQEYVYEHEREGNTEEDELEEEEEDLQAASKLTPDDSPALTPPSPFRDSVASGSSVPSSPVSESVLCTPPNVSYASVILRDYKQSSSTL
For assay [8] the target is unchanged. The assay is described as follows: Potency at metabotropic glutamate receptor 1, measured as the ratio of EC50 to IC50; No effect at 1 mM.

Structures are written as SMILES.

T1 sequence (Q14833 whole entry): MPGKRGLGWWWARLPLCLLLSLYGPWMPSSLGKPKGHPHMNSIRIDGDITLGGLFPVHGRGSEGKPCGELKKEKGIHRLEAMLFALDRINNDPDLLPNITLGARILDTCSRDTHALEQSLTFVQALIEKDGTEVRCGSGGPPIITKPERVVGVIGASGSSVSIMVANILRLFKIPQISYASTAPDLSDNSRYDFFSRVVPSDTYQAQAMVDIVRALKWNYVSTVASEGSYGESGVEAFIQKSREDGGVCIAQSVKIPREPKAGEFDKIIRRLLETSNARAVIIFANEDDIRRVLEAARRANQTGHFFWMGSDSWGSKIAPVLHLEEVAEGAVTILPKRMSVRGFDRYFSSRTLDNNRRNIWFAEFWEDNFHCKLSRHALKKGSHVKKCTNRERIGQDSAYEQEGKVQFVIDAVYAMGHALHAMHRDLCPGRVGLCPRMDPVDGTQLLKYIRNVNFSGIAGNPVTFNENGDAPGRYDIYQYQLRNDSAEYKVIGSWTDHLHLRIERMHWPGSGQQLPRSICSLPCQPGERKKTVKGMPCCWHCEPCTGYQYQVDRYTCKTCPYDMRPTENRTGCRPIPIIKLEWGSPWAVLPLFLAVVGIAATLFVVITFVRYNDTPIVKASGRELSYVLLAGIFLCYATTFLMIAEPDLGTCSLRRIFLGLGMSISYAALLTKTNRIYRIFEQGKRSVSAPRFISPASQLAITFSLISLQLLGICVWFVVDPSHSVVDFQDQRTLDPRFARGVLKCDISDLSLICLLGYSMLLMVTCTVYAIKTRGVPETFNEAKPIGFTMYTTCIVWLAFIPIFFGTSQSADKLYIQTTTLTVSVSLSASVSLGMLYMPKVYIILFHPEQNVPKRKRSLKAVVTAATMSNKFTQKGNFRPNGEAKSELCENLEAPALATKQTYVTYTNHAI

Consider `N[C@H](C(=O)O)c1ccc(C(=O)O)cc1`, for which the Ki in assay [1] came to 838 µM; in assay [2], 3.7 µM.
Regarding `N[C@@H](Cn1oc(=O)[nH]c1=O)C(=O)O` [QUISQUALATE], the Ki worked out at 112 µM in assay [1] and 113 µM in assay [3].
As for `N[C@H](C(=O)O)c1cc(O)cc(O)c1`, the Ki in assay [3] is over 1000 µM; in assay [2], 0.9 µM. The NE result in assay [4] and in assay [5] was “No effect at 1 mM” each time.
As to `N[C@H](C(=O)O)c1ccc(P(=O)(O)O)cc1`, the NE entry in assay [6] and in assay [7] was “No effect at 1 mM” throughout.
Molecule `N[C@@]1(C(=O)O)CC[C@H]2[C@H](C(=O)O)[C@H]21` had a Ki in assay [3] of 0.013 µM.
Regarding `N[C@H](C(=O)O)C1[C@@H](C(=O)O)[C@@H]1C(=O)O` (some centres undefined), the Ki in assay [3] worked out at 0.11 µM; in assay [2] it was 77 µM.
Take `N[C@@H](CCP(=O)(O)O)C(=O)O`: the values for the Ki in assay [1], in assay [3] and in assay [2] were 0.47 µM, 129 µM and over 1000 µM, respectively. Besides, the NE result in assay [8] is “No effect at 1 mM”.
`N[C@@]1(C(=O)O)C[C@H](C(=O)O)[C@H](C(=O)O)C1`: the NE entry in assay [6] and in assay [7] was “No effect at 1 mM” each time.

By Ki is commonly meant a measure of affinity in units of concentration, obtained from inhibition or displacement. A higher Ki goes with a looser hold on the target.
